Measurements: ChEMBL document CHEMBL3885861, “Open TG-GATES”
Counter-ions that a name gives are not always drawn.

Organism: Rattus norvegicus
Experiment: Open TG-GATES - Regimen: Single
Assay type: toxicity, organism-based, Sprague-Dawley
Parameters: regimen Single, gender Male, age 6 weeks
Conditions: in vivo, ip, 800 mg/kg, route intraperitoneal injection, dose level High; for APTT / Bas / Eos / Fbg / Hb / Ht / Lym / MCH / MCHC / MCV / Mono / Neu / PT / Plat / RBC / Ret / WBC: tissue Blood; for KIDNEY_L / KIDNEY_R / KIDNEY_TOTAL: tissue Kidney; for LIVER: tissue Liver; for A/G / ALP / ALT / AST / BUN / CRE / Ca / Cl / DBIL / GLC / IP / K / LDH / Na / PL / RALB / TBIL / TC / TG / TP / gamma-GTP: tissue Plasma

CCOC(=O)/C=C\C(=O)OCC [DIETHYL MALEATE]
TERMINAL_BW (3 h): 200.3 g
APTT (3 h): 17 s
Bas (3 h): 0%
Eos (3 h): 1.4%
Fbg (3 h): 195.6 mg/dL
Hb (3 h): 14.1 g/dL
Ht (3 h): 42.3%
Lym (3 h): 62.4%
MCH (3 h): 21.3 pg
MCHC (3 h): 33.4%
MCV (3 h): 63.9 fL
Mono (3 h): 7.8%
Neu (3 h): 28.4%
PT (3 h): 13.2 s
Plat (3 h): 123.8 x10_4/uL
RBC (3 h): 662.6 x10_4/ul
Ret (3 h): 9.9%
WBC (3 h): 59.8 x10_2/uL
KIDNEY_L (3 h): 0.9 g
KIDNEY_R (3 h): 0.9 g
KIDNEY_TOTAL (3 h): 1.8 g
LIVER (3 h): 7.9 g
A/G (3 h): 1.7
ALP (3 h): 764.4 IU/L
ALT (3 h): 48.8 IU/L
AST (3 h): 96.2 IU/L
BUN (3 h): 19.2 mg/dL
CRE (3 h): 0.5 mg/dL
Ca (3 h): 10.7 mg/dL
Cl (3 h): 105.2 meq/L
DBIL (3 h): 0.01 mg/dL
GLC (3 h): 218.6 mg/dL
IP (3 h): 10.8 mg/dL
K (3 h): 5.2 meq/L
LDH (3 h): 209.4 IU/L
Na (3 h): 136 meq/L
PL (3 h): 101.8 mg/dL
RALB (3 h): 3.5 g/dL
TBIL (3 h): 0.5 mg/dL
TC (3 h): 59.4 mg/dL
TG (3 h): 20.2 mg/dL
TP (3 h): 5.5 g/dL
gamma-GTP (3 h): 1 IU/L
TERMINAL_BW (6 h): 195.6 g
APTT (6 h): 16.8 s
Bas (6 h): 0%
Eos (6 h): 0.8%
Fbg (6 h): 206.2 mg/dL
Hb (6 h): 14.2 g/dL
Ht (6 h): 42.4%
Lym (6 h): 71.8%
MCH (6 h): 22.1 pg
MCHC (6 h): 33.5%
MCV (6 h): 65.9 fL
Mono (6 h): 8.6%
Neu (6 h): 18.8%
PT (6 h): 12.2 s
Plat (6 h): 126 x10_4/uL
RBC (6 h): 644.2 x10_4/ul
Ret (6 h): 10.4%
WBC (6 h): 78.9 x10_2/uL
KIDNEY_L (6 h): 0.9 g
KIDNEY_R (6 h): 0.9 g
KIDNEY_TOTAL (6 h): 1.8 g
LIVER (6 h): 7.6 g
A/G (6 h): 2
ALP (6 h): 784.8 IU/L
ALT (6 h): 53.2 IU/L
AST (6 h): 101 IU/L
BUN (6 h): 22 mg/dL
CRE (6 h): 0.5 mg/dL
Ca (6 h): 10.9 mg/dL
Cl (6 h): 105.6 meq/L
DBIL (6 h): 0.012 mg/dL
GLC (6 h): 204 mg/dL
IP (6 h): 10.2 mg/dL
K (6 h): 5.4 meq/L
LDH (6 h): 205 IU/L
Na (6 h): 136.2 meq/L
PL (6 h): 124.6 mg/dL
RALB (6 h): 3.7 g/dL
TBIL (6 h): 0.5 mg/dL
TC (6 h): 77.6 mg/dL
TG (6 h): 28.2 mg/dL
TP (6 h): 5.6 g/dL
gamma-GTP (6 h): 1 IU/L
TERMINAL_BW (9 h): 191 g
APTT (9 h): 16.8 s
Bas (9 h): 0%
Eos (9 h): 0.8%
Fbg (9 h): 190.4 mg/dL
Hb (9 h): 13.7 g/dL
Ht (9 h): 40.9%
Lym (9 h): 63.6%
MCH (9 h): 21.5 pg
MCHC (9 h): 33.5%
MCV (9 h): 64 fL
Mono (9 h): 8.6%
Neu (9 h): 27.2%
PT (9 h): 12.4 s
Plat (9 h): 126 x10_4/uL
RBC (9 h): 638 x10_4/ul
Ret (9 h): 8.8%
WBC (9 h): 90.6 x10_2/uL
KIDNEY_L (9 h): 0.9 g
KIDNEY_R (9 h): 0.9 g
KIDNEY_TOTAL (9 h): 1.8 g
LIVER (9 h): 7.1 g
A/G (9 h): 2.3
ALP (9 h): 702.8 IU/L
ALT (9 h): 38.6 IU/L
AST (9 h): 101.8 IU/L
BUN (9 h): 19.2 mg/dL
CRE (9 h): 0.4 mg/dL
Ca (9 h): 10.4 mg/dL
Cl (9 h): 106 meq/L
DBIL (9 h): 0 mg/dL
GLC (9 h): 195 mg/dL
IP (9 h): 9.5 mg/dL
K (9 h): 4.9 meq/L
LDH (9 h): 134.8 IU/L
Na (9 h): 137 meq/L
PL (9 h): 115.6 mg/dL
RALB (9 h): 3.6 g/dL
TBIL (9 h): 0.5 mg/dL
TC (9 h): 71.2 mg/dL
TG (9 h): 15 mg/dL
TP (9 h): 5.2 g/dL
gamma-GTP (9 h): 2 IU/L
TERMINAL_BW (24 h): 198.4 g
APTT (24 h): 15.2 s
Bas (24 h): 0%
Eos (24 h): 0.8%
Fbg (24 h): 183 mg/dL
Hb (24 h): 13.2 g/dL
Ht (24 h): 39.6%
Lym (24 h): 79.2%
MCH (24 h): 21.7 pg
MCHC (24 h): 33.4%
MCV (24 h): 65 fL
Mono (24 h): 5.2%
Neu (24 h): 15%
PT (24 h): 11.7 s
Plat (24 h): 122 x10_4/uL
RBC (24 h): 609.6 x10_4/ul
Ret (24 h): 8.5%
WBC (24 h): 126.8 x10_2/uL
KIDNEY_L (24 h): 0.9 g
KIDNEY_R (24 h): 0.9 g
KIDNEY_TOTAL (24 h): 1.8 g
LIVER (24 h): 8.9 g
A/G (24 h): 2.3
ALP (24 h): 756.4 IU/L
ALT (24 h): 34.8 IU/L
AST (24 h): 67.6 IU/L
BUN (24 h): 18 mg/dL
CRE (24 h): 0.4 mg/dL
Ca (24 h): 10.5 mg/dL
Cl (24 h): 106.4 meq/L
DBIL (24 h): 0.022 mg/dL
GLC (24 h): 189.2 mg/dL
IP (24 h): 7.2 mg/dL
K (24 h): 5.2 meq/L
LDH (24 h): 123 IU/L
Na (24 h): 138.6 meq/L
PL (24 h): 135.8 mg/dL
RALB (24 h): 3.7 g/dL
TBIL (24 h): 0.4 mg/dL
TC (24 h): 69.4 mg/dL
TG (24 h): 98 mg/dL
TP (24 h): 5.3 g/dL
gamma-GTP (24 h): 2 IU/L
